PMC9502271, “An Investigation of the Anti-Depressive Properties of Phenylpropanoids and Flavonoids in Hemerocallis citrina Baroni” (Molecules, 2022)
Read-outs that look alike come from different tables or passages of the source.

Legend:
CUMS rats [1] = assay: Sucrose preference test (SPT) in CUMS rats; type: in vivo, Male Sprague-Dawley (SD) rats; conditions: after five weeks of administration by gastric gavage, HFPE, HFFE 25 mg/kg, fluoxetine 10 mg/kg, model group 64.44%
Procedure: (§1) The Animal Ethics Committee of Shenyang Pharmaceutical University has approved all animal testing (no. SYPU-IACUC-S2021-03-03-202). Male Sprague-Dawley (SD) rats weighing 180–200 g were supplied by Central Animal House of Shenyang Pharmaceutical University (Shenyang, China). […] They were also provided water and a regular food. Before the actual trials start, the rats should acclimate to their new environment for seven days.
(§2) A baseline test was conducted as described below before grouping. Rats were divided into five groups of 10 depending on their weight and sucrose preference. The model group, fluoxetine (10 mg/kg) group, HFPE (25 mg/kg) group, and HFFE (25 mg/kg) group were the four treatment groups using CUMS procedures. An untouchable control group was used. Based on what had been reported in the pharmacological literature the HFPE and HFFE dosages were selected. Two hours before to the daily CUMS procedure and behavioral testing, the rats received the appropriate solutions. […]
(§3) Body weights were recorded every week. […]
The SPT is used to evaluate rodent behavior associated with a human clinical symptom of depression by evaluating the capacity to seek pleasure. […] After that, the amount of liquids consumed was recorded. […]

CUMS rats [2] = assay: Open-field test (OFT) in CUMS rats; type: in vivo, Male Sprague-Dawley (SD) rats; conditions: 5 min test, HFPE, HFFE 25 mg/kg, fluoxetine 10 mg/kg, compared with model group
Procedure: as §1, §2, §3
To assess the effects of HFPE and HFFE on exploratory behavior of rats administered CUMS, OFT carried out in the same manner as literature. Each rat was placed in its own square in the center of a black box that measured 100 cm × 100 cm × 40 cm. […] Both the crossing score and the rearing score for each animal were recorded. […]

TNF-α = TNF-α level in hippocampus of CUMS rats, ELISA; type: in vivo, Male Sprague-Dawley (SD) rats; conditions: after 5 weeks of therapy, HFPE, HFFE 25 mg/kg, fluoxetine 10 mg/kg
Procedure: as §1, §2
(§4) The serum and hippocampal tissue of rats were taken. […] The optical density value was calculated after the reaction by setting the microtiter plate at 450 nm. The amount of CORT in the serum and the amounts of IL-6, IL-1β, and TNF-α in the hippocampus tissue were calculated using the standard curve.

IL-6 = IL-6 level in hippocampus of CUMS rats, ELISA; type: in vivo, Male Sprague-Dawley (SD) rats; conditions: after 5 weeks of therapy, HFPE, HFFE 25 mg/kg, fluoxetine 10 mg/kg
Procedure: as §1, §2, §4

IL-1β = IL-1β level in hippocampus of CUMS rats, ELISA; type: in vivo, Male Sprague-Dawley (SD) rats; conditions: after 5 weeks of therapy, HFPE, HFFE 25 mg/kg, fluoxetine 10 mg/kg
Procedure: as §1, §2, §4

CUMS rats [3] = assay: Forced swimming test (FST) in CUMS rats; type: in vivo, Male Sprague-Dawley (SD) rats; conditions: HFPE, HFFE 25 mg/kg, fluoxetine 10 mg/kg, compared with CUMS model group
Procedure: as §1
as §2, with “solutions. All of the medications were administered through gastric gavage at a volume of 3 mL/kg of body weight and dissolved in sodium carboxymethylcellulose (CMC-Na) at a concentration of 0.3%.” for “solutions.”
as §3
The FST protocol was carried out as described in previous literature. […] The time the rat’s immobility duration in the last five minutes of their six-minute swim in the bucket was recorded. […]

[4] = Body weight growth rate of CUMS rats; type: in vivo, Male Sprague-Dawley (SD) rats; conditions: 5 weeks, HFPE, HFFE 25 mg/kg, fluoxetine 10 mg/kg, gastric gavage
Procedure: as §1
as §2, with “solutions. All of the medications were administered through gastric gavage at a volume of 3 mL/kg of body weight and dissolved in sodium carboxymethylcellulose (CMC-Na) at a concentration of 0.3%. Days 76–79, 80, and 81 after the final dosage of the medication, respectively, saw the completion of the SPT, OFT, and FST.” for “solutions.”
as §3

BV2 microglial cells = assay: CCK8 cytotoxic activity in BV2 microglial cells; type: cell-based; conditions: Mus musculus, BV-2, CCK8, LPS 1 μg/mL 24 h, compound test concentrations 3.125 to 100 μM, read-out: IC50 Cell Viability
Procedure: (§5) BV2 microglia cells were purchased from iCell Bioscience Inc. (Shanghai, China). The cells were grown at 37 °C in a humid environment with 5% CO2. In DMEM with 10% fetal bovine serum and 1% penicillin-streptomycin solution, they were maintained alive. The following assays were carried out while the cells were in the exponential growth phase (subcultured 2–3 times).
The cytotoxic activity was assessed using the CCK8 test. In a 96-well plate, BV2 microglial cells (5 × 10^4 cells/well) were placed in each well and incubated for 12 h. After one hour with each substance, LPS (1 μg/mL) was applied to the BV2 microglia cells for an additional 24 h. The CCK8 solution was then incubated with BV2 cells for 1 h at 37 °C. The absorbance at 450 nm was measured using a plate reader (Molecular Devices, San Jose, CA, USA). The cells that had not been treated were assumed to have a 100% optical density.

[5] = system: NO production induced by LPS in BV2 cells; assay: Inhibition of NO production in LPS-induced BV2 microglial cells (Griess reagent); type: cell-based; conditions: compound test concentrations 3.125 to 100 μM, mean ± SD (n = 3), read-out: IC50 NO Inhibitory
Procedure: as §5
To determine how much NO is produced, the literature was consulted. Equal parts of the Griess reagent (1% sulfanilamide and 0.1% N-(1-naphthyl) ethylenediamine dihydrochloride in 2.5% phosphoric acid) were combined with the sample-treated cell culture medium for 5 min at room temperature and in the dark. It was determined that the absorbance was at 540 nm using a microplate reader. The trials were conducted simultaneously in triplicate.

[6] = Mus musculus, BV-2, LPS-induced BV2 cells

CNCCC(Oc1ccc(C(F)(F)F)cc1)c1ccccc1 (centres unmarked) [fluoxetine]
sucrose preference (CUMS rats [1]): 82.40% | OFT rearing score (exploratory activity) (CUMS rats [2]): improved the rearing score | TNF-α level in hippocampus (TNF-α): obviously reduced | IL-6 level in hippocampus (IL-6): obviously reduced | IL-1β level in hippocampus (IL-1β): obviously reduced | FST immobility time (CUMS rats [3]): reduced immobility | growth rate of body weight [4]: alleviate the reduction in body weight

COc1cc(-c2oc3cc(O)cc(O)c3c(=O)c2O[C@@H]2O[C@H](CO[C@@H]3O[C@@H](C)[C@H](O)[C@@H](O)[C@H]3O)[C@H](O)[C@H](O)[C@H]2O[C@@H]2O[C@@H](C)[C@H](O)[C@@H](O)[C@H]2O)ccc1O [Compound 28, isorhamnetin-3-O-α-L-rhamnopyranosyl-(1→2)-[α-L-rhamnopyranosyl-(1→6)-β-D-galactopyranoside]]
IC50 (BV2 microglial cells): > 100 µM | IC50 ([5]; LPS-induced BV2 cells): 90.7 ± 10.4 µM | IC50 [5, 6]: < 100 µM

COc1cc(-c2oc3cc(O)cc(O)c3c(=O)c2O[C@@H]2O[C@H](CO[C@@H]3O[C@@H](C)[C@H](O)[C@@H](O)[C@H]3O)[C@@H](O)[C@H](O)[C@H]2O)ccc1O [Compound 27]
IC50 (BV2 microglial cells): > 100 µM | IC50 [5, 6]: > 100 µM

O=c1c(O[C@@H]2O[C@H](CO)[C@H](O)[C@H](O)[C@H]2O)c(-c2ccc(O)c(O)c2)oc2cc(O)cc(O)c12 [Compound 18, quercetin-3-O-β-D-galactpyranoside]
IC50 (BV2 microglial cells): > 100 µM | IC50 [5, 6]: > 100 µM
